Literature values as cited in paper PMC6311893, “Computational prediction of plasma protein binding of cyclic peptides from small molecule experimental data using sparse modeling techniques” (BMC Bioinformatics, 2018).

Tested on: plasma protein
Settings: fraction bound to plasma protein; small molecule dataset, sheet 1-SM (Set Dte = test, Dtr = training); ref Ingle et al.; cited from earlier work

Compound	PPB (fb)
Nc1ncn([C@H]2C[C@H](O)[C@@H](CO)O2)c(=O)n1 [Decitabine]	0
CC(C)(C)NCC(O)COc1cccc2c1SCCC2 (centres unmarked) [tertatolol]	0.95
CC12CC(=O)C3C(CCC4CC(O)CCC43C)C1CCC2C(=O)CO (centres unmarked) [alfadolone]	0.3
CN(C)CCC(c1ccc(Br)cc1)c1ccccn1 (centres unmarked) [brompheniramine]	0.72
CCCCCN(C)CCC(O)(P(=O)(O)O)P(=O)(O)O [Ibandronic Acid (Ibandronate)]	0.85
CC(C)(Oc1ccc(Cl)cc1)C(=O)O [clofibric acid]	0.98
CCn1cc(C(=O)O)c(=O)c2cc(F)c(N3CCNC(C)C3)c(F)c21 (centres unmarked) [lomefloxacin]	0.12
CCOC(=O)[C@H](CCc1ccccc1)N[C@H]1CCCN2CCC[C@@H](C(=O)O)N2C1=O [cilazapril]	0.25
COc1ccc(-n2cc(C(=O)O)c(=O)c3cc(F)c(N4CCN(C)CC4)cc32)cc1 [5ca (p-OCH3__N-CH3)]	0.43
CO/N=C(\C(=O)N[C@@H]1C(=O)N2C(C(=O)OCOC(=O)C(C)(C)C)=C(/C=C\c3scnc3C)CS[C@H]12)c1csc(N)n1 [cefditoren-pivoxil]	0.88
C=CCOc1ccc(CC(=O)O)cc1Cl [alclofenac]	0.99
CNS(=O)(=O)CCc1ccc2[nH]cc(C3CCN(C)CC3)c2c1 [Naratriptan]	0.29
COc1cc2nc(N(C)CCCNC(=O)C3CCCO3)nc(N)c2cc1OC (centres unmarked) [alfuzosin]	0.9
CCCc1oc(CCC(=O)O)c(C(=O)O)c1C	0.99
CCOc1ccc2ccccc2c1C(=O)N[C@@H]1C(=O)N2[C@@H]1SC(C)(C)[C@@H]2C(=O)O [Nafcillin]	0.88
CCCSc1ccc2nc(NC(=O)OC)[nH]c2c1 [albendazole]	0.7
CNC[C@H](O)c1cccc(O)c1 [phenylephrine]	0.51
Cc1onc(-c2ccccc2Cl)c1C(=O)N[C@@H]1C(=O)N2[C@@H]1SC(C)(C)[C@@H]2C(=O)O [cloxacillin]	0.95

Same assay, conditions: fraction bound to plasma protein; small molecule dataset, sheet 1-SM, Set Dtr; ref Ingle et al.; cited from earlier work

Compound	PPB (fb)
CN(Cc1cnc2nc(N)nc(N)c2n1)c1ccc(C(=O)N[C@@H](CCC(=O)O)C(=O)O)cc1 [Methotrexate]	0.58
CC(C)NCC(O)COc1cccc2[nH]ccc12 (centres unmarked) [Pindolol]	0.48
CCn1cc(C(=O)O)c(=O)c2cc(F)c(N3CCNCC3)nc21 [Enoxacin]	0.26
CN(C)CCCC1(c2ccc(F)cc2)OCc2cc(C#N)ccc21 (centres unmarked) [Citalopram]	0.68
CC(=O)Nc1c(I)c(C(=O)O)c(I)c(N(C)C(C)=O)c1I [Metrizoate]	0
CN1CCCC(n2nc(Cc3ccc(Cl)cc3)c3ccccc3c2=O)CC1 (centres unmarked) [Azelastine]	0.85
COc1cc(OC)c(C(=O)CCCN2CCCC2)c(OC)c1 [Buflomedil]	0.6
CCN(CC)CCCC(C)Nc1ccnc2cc(Cl)ccc12 (centres unmarked) [Chloroquine]	0.58
Nc1nc(/C(=N/O)C(=O)N[C@@H]2C(=O)N3C(C(=O)O)=C(/C=C4\CCN([C@@H]5CCNC5)C4=O)CS[C@H]23)ns1 [Ceftobiprole]	0.38
Nc1ccn([C@H]2CC[C@@H](CO)O2)c(=O)n1 [zalcitabine]	0.03
C#C[C@]1(O)C=C[C@H]2[C@@H]3CCC4=CC(=O)CC[C@@H]4[C@H]3CC[C@@]21CC [Gestodene]	0.98
CC[C@H]1OC(=O)[C@H](C)[C@@H](O[C@H]2C[C@@](C)(OC)[C@@H](O)[C@H](C)O2)[C@H](C)[C@@H](O[C@@H]2O[C@H](C)C[C@H](N(C)C)[C@H]2O)[C@](C)(O)C[C@@H](C)C(=O)[C@H](C)[C@@H](O)[C@]1(C)O [Erythromycin]	0.86
NC[C@H]1CC[C@H](C(=O)O)CC1 [tranexamic acid]	0.03
Nc1ccc(S(=O)(=O)c2ccc(N)cc2)cc1 [Dapsone]	0.75
CCc1nn(CCCN2CCN(c3cccc(Cl)c3)CC2)c(=O)n1CCOc1ccccc1 [Nefazodone]	0.99
CC(CN(C)C)CN1c2ccccc2Sc2ccccc21 (centres unmarked) [trimeprazine]	0.85
O=C(CCCN1CCC(O)(c2ccc(Cl)cc2)CC1)c1ccc(F)cc1 [Haloperidol]	0.92

Same assay, conditions: fraction bound to plasma protein; small molecule dataset, sheet 1-SM; ref Ingle et al.; cited from earlier work

Compound	PPB (fb)
C/C(=C\C(=O)OCCCCCCCCC(=O)O)C[C@@H]1OC[C@H](C[C@@H]2O[C@H]2[C@@H](C)[C@H](C)O)[C@@H](O)[C@H]1O [mupirocin]	0.96
CNCC[C@H](Oc1cccc2ccccc12)c1cccs1 [Duloxetine]	0.9
CN1C(=O)CC(c2ccccc2)C1=O (centres unmarked) [phensuximide]	0.07
CC(=O)CCCCn1c(=O)c2c(ncn2C)n(C)c1=O [pentoxifylline]	0
CCC(OC)C(=O)NC1C(=O)N2C1SC(C)(C)C2C(=O)O (centres unmarked) [penicillin9]	0.2
O=C1NCCN1CCN1CCC(c2cn(-c3ccc(F)cc3)c3ccc(Cl)cc23)CC1 [sertindole]	0.99
COc1ccc(C(N)C(=O)NC2C(=O)N3C2SC(C)(C)C3C(=O)O)cc1 (centres unmarked) [penicillin34]	0.38
Cn1cc(NC(=O)c2cc(NC(=O)c3cc(NC(=O)c4nsc(Cl)c4Cl)cn3C)cn2C)cc1C(=O)NCCC(=N)N [GSQ1530]	0.89
CC(C)Cc1ccc(C(C)C(=O)NCCCN(C)C)cc1 (centres unmarked) [JMC_07]	0.75
CC1(C)SC2C(NC(=O)c3ccc4ccccc4c3)C(=O)N2C1C(=O)O (centres unmarked) [penicillin65]	0.96
OC[C@H]1O[C@@H](n2cnc3c2NC=NC[C@H]3O)C[C@@H]1O [pentostatin]	0.03
CO[C@]1(CC[C@@H](C)CO[C@@H]2O[C@H](CO)[C@@H](O)[C@H](O)[C@H]2O)O[C@H]2C[C@H]3[C@@H]4CC=C5C[C@@H](O[C@@H]6O[C@H](CO)[C@@H](O[C@@H]7O[C@@H](C)[C@H](O)[C@@H](O)[C@H]7O)[C@H](O)[C@H]6O[C@@H]6O[C@@H](C)[C@H](O)[C@@H](O)[C@H]6O)CC[C@]5(C)[C@H]4CC[C@]3(C)[C@H]2[C@@H]1C [methyl protodioscin]	0.84
CN(CCOc1ccc(CC2SC(=O)NC2=O)cc1)c1ccccn1 (centres unmarked) [Rosiglitazone]	0.99
Cc1ccnc(NS(=O)(=O)c2ccc(N)cc2)n1 [sulfamerazine]	0.85
O=C(c1ccc(OCCN2CCCCC2)cc1)c1c(-c2ccc(O)cc2)sc2cc(O)ccc12 [raloxifene]	0.97
NS(=O)(=O)c1ccc(S(=O)(=O)Nc2cccc3c(Cl)c[nH]c23)cc1 [indisulam]	0.98
CC/C(=C(\c1ccccc1)c1ccc(OCCN(C)C)cc1)c1ccccc1 [tamoxifen]	0.99

Compound	PPB (fb)
COc1cc(/C=C/C(=O)O)ccc1O [ferulic acid]	0.73
COc1ccc2cc(CCC(C)=O)ccc2c1 [nabumetone]	0.99
COCCOc1c(OC)cc(Cc2cnc(N)nc2N)cc1OC [tetroxoprim]	0.15
CCc1cccc2c3c([nH]c12)C(CC)(CC(=O)O)OCC3 (centres unmarked) [etodolac]	0.99
CCN1CCC[C@H]1CNC(=O)c1c(OC)ccc(Br)c1OC [Remoxipride]	0.79
CN1CC(=O)N2[C@H](c3ccc4c(c3)OCO4)c3[nH]c4ccccc4c3C[C@@H]2C1=O [tadalafil]	0.94
CC1(C)SC2C(NC(=O)C(Oc3ccccc3)c3ccccc3)C(=O)N2C1C(=O)O (centres unmarked) [penicillin51]	0.97
COc1cc2c(cc1OC)CN(C(=O)[C@H](C)N[C@@H](CCc1ccccc1)C(=O)O)[C@H](C(=O)O)C2 [moexiprilat]	0.5
NCC1OC(OC2C(CO)OC(OC3C(O)C(N)CC(N)C3OC3OC(CN)C(O)C(O)C3N)C2O)C(N)C(O)C1O (centres unmarked) [neomycin]	0.2
CCCN1CCCC[C@H]1C(=O)Nc1c(C)cccc1C [Ropivacaine]	0.94
CN1CCN(CCCN2c3ccccc3Sc3ccccc32)CC1 [perazine]	0.95
COc1ccc2c(c1)C(=O)N(CCc1ccc(S(=O)(=O)NC(=O)NC3CCCCC3)cc1)C(=O)C2(C)C [gliquidone]	0.99
OCCOCCN1CCN(C2=Nc3ccccc3Sc3ccccc32)CC1 [quetiapine]	0.83
CC1(C)SC2C(NC(=O)C(NC(=O)c3ccc(S(N)(=O)=O)cc3)c3ccccc3)C(=O)N2C1C(=O)O (centres unmarked) [penicillin35]	0.42
Nc1cc(N2CCCCC2)nc(N)[n+]1[O-] [minoxidil]	0.03
O=C(O)c1cc(/N=N/c2ccc(O)c(C(=O)O)c2)ccc1O [olsalazine]	0.99

Same assay, conditions: plasma; cited from earlier work

Compound	PPB (fb)
CCCOC(=O)Cc1ccc(OCC(=O)N(CC)CC)c(OC)c1 [propanidid]	0.75
C[C@H]1O[C@@H](O[C@H]2CC[C@@]3(C)[C@H](CC[C@@H]4[C@@H]3C[C@@H](O)[C@]3(C)[C@@H](C5=CC(=O)OC5)CC[C@]43O)C2)C[C@H](O)[C@@H]1O[C@H]1C[C@H](O)[C@H](O[C@H]2C[C@H](O)[C@H](O[C@@H]3O[C@H](CO)[C@@H](O)[C@H](O)[C@H]3O)[C@@H](C)O2)[C@@H](C)O1 [deslanoside]	0.2
dicoumarol	0.99
CO [methanol]	0
CCc1cc2c(s1)-n1c(C)nnc1CN=C2c1ccccc1Cl [etizolam]	0.93
COc1cc(CC2c3c(cc(OC)c(OC)c3OC)CC[N+]2(C)CCCOC(=O)CCC(=O)OCCC[N+]2(C)CCc3cc(OC)c(OC)c(OC)c3C2Cc2cc(OC)c(OC)c(OC)c2)cc(OC)c1OC (centres unmarked) [Doxacurium]	0.39
Cc1cccc(N2CC(CO)OC2=O)c1 (centres unmarked) [Toloxatone]	0.5
CN1C(=O)CCS(=O)(=O)C1c1ccc(Cl)cc1 (centres unmarked) [chlormezanone]	0.5
Iloprost	0.6
CCN(CC)C(=O)N[C@H]1C=C2c3cccc4[nH]cc(c34)C[C@H]2N(C)C1 [lisuride]	0.7
CC(Cc1ccc(O)cc1)NCC(O)c1cc(O)cc(O)c1 (centres unmarked) [Fenoterol]	0.47
CC(=O)NCCCS(=O)(=O)O [acamprosate]	0.03
